Results on 15 molecules are retold here after patent US5972939A, “Cyclopentene derivatives useful as antagonists of the motilin receptor” (Ortho-McNeil Pharmaceutical, Inc., priority 1998, dated 1999).

Assay [1] addresses T1, motilin receptors located on the colon of mature rabbits (Oryctolagus cuniculus, UniProt G1T803).
T1 construct: The colon from mature New Zealand rabbits was removed, dissected free from the mucosa and serosa layers, and diced into small pieces; from tissue; host or cells: colon smooth muscle of mature New Zealand rabbits, crude membrane homogenate
In words: competition with radiolabeled (125I) porcine motilin for the motilin receptors of rabbit colon. Type of assay: binding. Conditions: for IC50: rabbit colon, 125I motilin. Here is the method:
The compounds of the invention were tested for their ability to compete with radiolabeled motilin (porcine) for the motilin receptors located on the colon of mature rabbits. The colon from mature New Zealand rabbits was removed, dissected free from the mucosa and serosa layers, and diced into small pieces. […] The homogenate was centrifuged at 1000×g for 15 min. and the supernatant discarded. The pellet was washed twice before being suspended in homogenizing buffer. This crude homogenate is then passed first through a 19 gauge needle then a 23 gauge needle to further suspend the material and stored as -80° C. […] After 30 min, at 30° C., the material was cooled on ice and centrifuged at 13,000×g for 1 minute. The pellet was washed with 1 mL 0.9% saline and centrifuged at 13,000×g for 15 seconds. The pellet was washed again with cold saline and the supernatant was removed. The pellet was counted in the gamma counter to determine the percentage of […] motilin and thereby the percent inhibition of the test compound. IC50s were determined for some compounds by standard techniques.

In assay [2] the test system is rabbit duodenum smooth muscle (motilin and erythromycin induced contractions). Kind of assay: inhibition of motilin (porcine) induced contractions in rabbit duodenum smooth muscle. The format is cell-based. Conditions: Oryctolagus cuniculus; for inhibition at 2 µM: @ 2 μM (2.0 μM). Here is the method: Select compounds of the invention were evaluated for their ability to inhibit motilin and erythromycin induced contractions in the rabbit duodenum smooth muscle. Rabbits were fasted 24-48 h and euthanized. The venral midline incision was made approximately 7.5 cm above the umbilicus upto the xyphoid process, exposing the upper peritoneal cavity. The first 8 cm. of the duodenum starting at the pyloric valve was quickly removed and placed in Krebs solution containing NaCl, ([…]), KCl (4.7 mM), MgSO4 *7 H2 O (1.2 mM), CaCl2 *2 H2 O (2.4 mM), KH2 PO4 (1 mM), D-glucose (10 mM), and NaHCO3 (24 mM). The lumen was flushed with Krebs and excess tissue was removed. The tissue was cut lengthwise, splayed open with the longitudinal muscle layer facing up, and the longitudinal muscle layer was released away from the circular muscle and cut into 3×30 mm strips. A pre-tied 4-0 silk ligature with a loop was placed at the middle of the strip and the strip was folded over the loop so the strip was half its original length. The tissues were mounted in a 10 mL tissue bath (Radnotti Glass Technology, Inc., Monrovia, Calif.) containing Krebs solution gassed with 95% O2 5% CO2 at 37° C. […] The tissues were allowed to equilibrate for 60-90 min with 2-3 wash cycles. The tissues were equilibrated with two initial contractions induced by a concentration of acetylcholine (1×10^-4 M) that produced a maximal contraction (0.1 mM), with the highest taken as 100% maximall contraction of that tissue. Base line and response levels are expressed as grams tension developed and as a percent of the response to acetylcholine. The test compounds were dissolved in DMSO (2 mM/100% DMSO) and applied to the prepared strips 5-15 minutes prior to the addition of porcine motilin. After addition, the tension is constantly monitored over 5 min and the maximum tension is recorded. The percent contraction was measured at four ascending concentrations and where appropriate IC50s were determined.

The test system of another assay is motilin receptor. The settings on record: Weber et al. 1993; cited from earlier work.
The test system of assay [3] is smooth muscle in the stomach tissue of dogs, rabbits, and humans and in the colon of rabbits. The settings on record: cited from earlier work.
The subject of the next assay is humans. Conditions: intravenous, Christofides et al. 1979; cited from earlier work.

Like-named read-outs stand apart in the source and are kept apart here.

By IC50 is commonly meant the midpoint of a concentration-inhibition curve. For orientation: inhibition means how much of the control response was suppressed. Lower therefore signals a weak effect.

T1 sequence (G1T803 1-400): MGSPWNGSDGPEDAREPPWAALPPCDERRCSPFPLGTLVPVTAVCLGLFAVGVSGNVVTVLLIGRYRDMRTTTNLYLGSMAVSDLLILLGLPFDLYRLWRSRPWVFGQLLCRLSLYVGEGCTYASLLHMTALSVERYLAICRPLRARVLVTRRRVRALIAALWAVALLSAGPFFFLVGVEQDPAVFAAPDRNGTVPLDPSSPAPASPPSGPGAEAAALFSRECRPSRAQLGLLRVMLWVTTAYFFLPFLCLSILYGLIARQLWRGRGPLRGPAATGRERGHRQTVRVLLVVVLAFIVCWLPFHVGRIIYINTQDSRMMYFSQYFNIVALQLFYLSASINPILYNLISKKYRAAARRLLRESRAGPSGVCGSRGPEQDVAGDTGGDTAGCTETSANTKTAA

Consider `CCN(CC)CCN(CC1=CC(Cc2ccccc2)(NC(=O)C(Cl)(Cl)Cl)CC1)c1cccc(OCCN2CCCC2)c1` (centres unmarked) [Compound 55], for which the IC50 in assay [1] (read-out: IC50 (unit inferred)) worked out at 900 nM. Further, the inhibition at 2 µM in assay [2] stood at 43%.

As for `CN(C)CCSc1ccc(NCC2=CC(Cc3ccccc3)(NC(=O)C(Cl)(Cl)Cl)CC2)cc1` (centres unmarked) [Compound 56], the IC50 in assay [1] (read-out: IC50 (unit inferred)) was determined as 1500 nM. Also, in assay [2], the inhibition at 2 µM is 24%. Regarding `O=C(NC1(Cc2ccccc2)C=C(CN(CCN2CCOCC2)Cc2cccc(OCCN3CCOCC3)c2)CC1)C(Cl)(Cl)Cl` (centres unmarked) [Compound 57], the IC50 is 700 nM in assay [1] (read-out: IC50 (unit inferred)) and 1060 nM in assay [2] (rabbit duodenum strips, porcine motilin, read-out: IC50 (unit inferred)).

On to `CCN(CC)CCSc1ccc(NCC2=CC(Cc3ccccc3)(NC(=O)C(Cl)(Cl)Cl)CC2)cc1` (centres unmarked) [Compound 58], for which the IC50 in assay [1] (read-out: IC50 (unit inferred)) turned out to be 1800 nM. Further, the inhibition at 2 µM in assay [2] came to 44%. As for `O=C(c1ccc(F)cc1)N(CC1=CC(Cc2ccccc2)(NC(=O)C(Cl)(Cl)Cl)CC1)c1cccc(OCCN2CCOCC2)c1` (centres unmarked) [Compound 59], in assay [1] (read-out: IC50), the IC50 is 52 nM. Moreover, in assay [2] (@ 3.0 μM), the inhibition at 3 µM came to 54%. For the molecule `COc1ccc(C(=O)N(CC2=CC(Cc3ccccc3)(NC(=O)C(Cl)(Cl)Cl)CC2)c2cccc(OCCN3CCOCC3)c2)cc1` (centres unmarked) [Compound 60], in assay [1] (read-out: IC50), the IC50 amounted to 90 nM. In addition, the inhibition at 10 µM in assay [2] (@ 10 μM) was determined as 49%.

In turn, `O=C(c1ccc(Br)cc1)N(CC1=CC(Cc2ccccc2)(NC(=O)C(Cl)(Cl)Cl)CC1)c1cccc(OCCN2CCOCC2)c1` (centres unmarked) [Compound 61] registered an inhibition at 0.05 µM in assay [1] (@ 0.05 μM) of 64%. The molecule further displayed an inhibition at 1 µM in assay [2] of 63%. As to `O=C(c1ccc(F)c(F)c1)N(CC1=CC(Cc2ccccc2)(NC(=O)C(Cl)(Cl)Cl)CC1)c1cccc(OCCN2CCOCC2)c1` (centres unmarked) [Compound 62], the IC50 in assay [1] (read-out: IC50) came out at 50 nM. The same molecule registered an inhibition at 1 µM in assay [2] of 65%. In the same order, the values of `O=C(Nc1cccc(F)c1)N(CC1=CC(Cc2ccccc2)(NC(=O)C(Cl)(Cl)Cl)CC1)c1cccc(OCCN2CCOCC2)c1` (centres unmarked) [Compound 63] are 37 nM and 63.8%. For the molecule `COc1ccc(CC2(NC(=O)C(Cl)(Cl)Cl)C=C(CN(C(=O)c3ccc(F)cc3)c3cccc(OCCN4CCOCC4)c3)CC2)cc1` (centres unmarked) [Compound 65], the IC50 in assay [1] (read-out: IC50) is 56 nM. In assay [2], this molecule returned an inhibition at 1 µM of 72%.

On to `COc1ccc(CC2(NC(=O)C(Cl)(Cl)Cl)C=C(CN(C(=O)c3ccccc3)c3cccc(OCCN4CCOCC4)c3)CC2)cc1` (centres unmarked) [Compound 66], for which the IC50 in assay [1] (read-out: IC50) came out at 56 nM. Moreover, in assay [2], the inhibition at 1 µM stood at 58%.

In turn, `O=C(Nc1ccccc1)N(CC1=CC(Cc2ccc(F)cc2)(NC(=O)C(Cl)(Cl)Cl)CC1)c1cccc(OCCN2CCOCC2)c1` (centres unmarked) [Compound 67] came in with an inhibition at 0.25 µM in assay [1] (@ 0.25 μM) of 34%. This molecule displayed an inhibition at 1 µM in assay [2] of 25.7%.

Take `O=C(Nc1ccccc1)N(CC1=CC(Cc2cccc(Cl)c2)(NC(=O)C(Cl)(Cl)Cl)CC1)c1cccc(OCCN2CCOCC2)c1` (centres unmarked) [Compound 68]: the inhibition at 0.1 µM in assay [1] (@ 0.1 μM) is 70%. In assay [2], this molecule gave an inhibition at 1 µM of 51%. Turning to `CC[C@H]1OC(=O)[C@H](C)[C@@H](O[C@H]2C[C@@](C)(OC)[C@@H](O)[C@H](C)O2)[C@H](C)[C@@H](O[C@@H]2O[C@H](C)C[C@H](N(C)C)[C@H]2O)[C@](C)(O)C[C@@H](C)C(=O)[C@H](C)[C@@H](O)[C@]1(C)O` [erythromycin], the “biological responses compared with motilin” value with motilin receptor was “elicits biological responses that are comparable to motilin itself”.

Take `CC[C@H](C)[C@H](NC(=O)[C@@H]1CCCN1C(=O)[C@@H](NC(=O)[C@@H](N)Cc1ccccc1)C(C)C)C(=O)N[C@@H](Cc1ccccc1)C(=O)N[C@H](C(=O)N[C@@H](Cc1ccc(O)cc1)C(=O)NCC(=O)N[C@@H](CCC(=O)O)C(=O)N[C@@H](CC(C)C)C(=O)N[C@@H](CCC(N)=O)C(=O)N[C@@H](CCCNC(=N)N)C(=O)N[C@@H](CCSC)C(=O)N[C@@H](CCC(N)=O)C(=O)N[C@@H](CCC(=O)O)C(=O)N[C@@H](CCCCN)C(=O)N[C@@H](CCC(=O)O)C(=O)N[C@@H](CCCNC(=N)N)C(=O)N[C@@H](CC(N)=O)C(=O)N[C@@H](CCCCN)C(=O)NCC(=O)N[C@@H](CCC(N)=O)C(=O)O)[C@@H](C)O` [motilin]: the smooth muscle contractions entry in assay [3] is listed as “induces smooth muscle contractions”. In the assay on humans, the “gastric emptying and gut hormone release” value is “increase gastric emptying and gut hormone release”.
